Publication PMC11400633, “Peptides inhibiting the assembly of monomeric human L‐lactate dehydrogenase into catalytically active homotetramer decrease the synthesis of lactate in cultured cells” (Protein Science : A Publication of the Protein Society, 2024)
*1 amine or outer side, *2 acyl side, *3 side chain or, on linkers, in order; H or OH if unused. [ ]: non-standard residue; d: D form. d(βAsp) = O=C(O)[C@@H](CC(=O)[*:2])N[*:1]

How the values were obtained:
[1] = biological target: T1, monomeric human LDH‐A (Homo sapiens, UniProt P00338); assay: Inhibition by peptides of LDH-A activity gained on assembly of monomeric LDH-A into tetramer; assay type: biochemical; conditions: 80 μM peptide incubated 5 min with 6.2 nM monomeric LDH-A, 10 mM Tris-HCl + 10 mM BisTris pH 7.5, started with 125 μM β-NADH and 500 μM pyruvate, 25°C, A340, vs control with 1% DMSO, mean ± SD, n = 3
T1 construct: made in house; host or cells: E. coli BL21(DE3), pET9a (NdeI/BamHI)
Procedure: (§1) In particular, all the peptides were tested at 80 μM (final concentration), and the LDH activity detected in their presence was compared with the catalytic action observed with control samples devoid of any peptide. First, we decided to assay the octameric peptide TH1, the primary structure of which ([…]) is identical to the LDH‐A region spanning residues 295–302. […] Indeed, the catalytic action exerted by 6 nM tetrameric LDH‐A (in 10 mM Tris–HCl, pH 7.5, containing 150 mM NaCl) was determined as equal to 433 ± 11 and 452 ± 19 nM/s in the absence and in the presence of 80 μM TH1 octapeptide, respectively. Overall, this insensitivity along with the significant effect elicited by TH1 on monomeric LDH‐A indicate that the octapeptide inhibits the assembly of LDH‐A monomers into the corresponding, catalytically active, tetramer. To dissect the inhibition triggered by TH1 on monomeric LDH‐A, we decided to evaluate: (i) whether or not the two halves of the octapeptide, that is, GQNG and ISDL, are equally competent in inhibiting LDH‐A; (ii) the action of linear and cyclic peptides, containing or not D amino acids; and (iii) the effect, if any, triggered by the presence of protecting groups in the peptides to be assayed. It should be noted that to allow the cyclization of tetrapeptide GQNG while maintaining a terminal carboxylic group, the sequence was modified to GQND, while for the cyclization of ISDL while maintaining a terminal amino group, the sequence was modified into KSDL (Table 1).
FIGURE 8 Inhibition exerted by linear and cyclic peptides on LDH‐A activity detected in vitro. […] The gray bars (in “a” and “d”) represent the activity observed in the presence of the same volume of DMSO (1%, v/v) carried to the assay mixtures by the peptides to be tested. (a–c) The effect, if any, of tetrameric peptides featuring the GQND primary structure (see also Table 1) on LDH‐A activity is shown. The inhibition exerted by the octameric peptide TH1 is also reported in “a.” The enzyme activity observed in the presence of linear or cyclic peptides is shown in “b” and “c”, respectively. (d) Extent of LDH‐A activity detected in the presence of linear or cyclic tetrapeptides featuring the KSDL primary structure. Error bars represent SD (n = 3). The experimental observations were compared by Student's t‐test. The ***, **, and * symbols denote p values lower than 0.001, 0.01, and […], respectively. (e) Simulation of the association between the TH2 peptide and monomeric LDH‐A. Predicted interactions between the cyclopeptide c[GQN‐isoD] (TH2) and the N‐terminal sequence Y^9[…]^19, as simulated by molecular dynamics in a box of explicit TIP3P water molecules; gray and red dotted lines represent hydrogen bonds and salt bridges, respectively.
All the assays were performed at 25°C using a Cary 300 Bio spectrophotometer.

[2] = biological target: T2, tetrameric LDH‐A (Homo sapiens, UniProt P00338); assay: Activity assay of tetrameric LDH-A in the presence of peptide; assay type: biochemical; conditions: 6 nM tetrameric LDH-A, 10 mM Tris-HCl pH 7.5, 150 mM NaCl, 80 μM peptide
T2 construct: made in house; host or cells: E. coli BL21(DE3), pET9a (NdeI/BamHI)
Procedure: as §1, with “It should be noted that to allow the cyclization of tetrapeptide GQNG while maintaining a terminal carboxylic group, the sequence was modified to GQND, while for the cyclization of ISDL while maintaining a terminal amino group, the sequence was modified into KSDL (Table 1).” left out

[3] = system: BxPC3 cells; assay: Colorimetric assay of lactate secretion by BxPC3 cells (expressing LDH-B); assay type: cell-based, human; conditions: BxPC3, 80 μM peptide with Lipofectamine 2000 (0.5% v/v), 1% DMSO, Krebs-Ringer buffer, 4 h, 37°C, n = 3
Source text: Having identified peptides able to interfere with the assembly of monomeric LDH‐A into catalytically active tetramer, we considered of interest to test the action of peptides against LDH‐A expressed in human cell lines. In particular, we analyzed the lactate secreted by cultured human cells exposed or not to the peptides better performing as inhibitors of LDH‐A in vitro, that is, TH1, TH2, and TH16. Moreover, we used two different cell lines exclusively expressing LDH‐A or LDH‐B, that is, MCF7 and BxPC3, respectively. In MCF7 cells, the [mRNALDH‐A]/[mRNALDH‐B] ratio is indeed equal to ca. 150 (Figure 9a), whereas in BxPC3 cells the messenger coding for LDH‐A was not detected (Figure 9a). Therefore, by comparing the decrease, if any, of the lactate concentration secreted by these two cell lines the selectivity of peptides acting against LDH‐A or LDH‐B can be conveniently estimated. When the MCF7 cell line is considered, the linear TH16 and the cyclic TH2 tetrapeptide performed equally, being both responsible for a concentration of secreted lactate 20% lower than that detected in their absence (Figure 9b). […] It should indeed be noted that the assays with cells were performed in the presence of lipofectamine (see Section 5). […] Accordingly, it seems likely that lipofectamine is effective in assisting the penetration of the TH16 and TH2 peptides into cells, with this action of lipofectamine being much weaker when dealing with a larger molecule, that is, an octapeptide.
To evaluate the competence of peptides in inhibiting the action of LDH‐A in cultured cells, two human cell cultures were used: MCF7 and BxPC3, isolated from breast and pancreatic adenocarcinoma, respectively. […]
The competence of peptides in inhibiting LDH in cultured cells was tested by assessing the concentration of lactate released by MCF7 and BxPC3 cell cultures. […] The concentration of lactate released in the Krebs–Ringer buffer was determined after 4 h of incubation at 37°C, using the colorimetric assay previously reported (Rossi et al., [2023]). […]

[4] = system: MCF7 cells; assay: Colorimetric assay of lactate secretion by MCF7 cells (expressing LDH-A); assay type: cell-based, human; conditions: for decrease of the concentration of secreted lactate: MCF7, 80 μM peptide with Lipofectamine 2000 (0.5% v/v), 1% DMSO, Krebs-Ringer buffer, 4 h, 37°C, colorimetric, n = 3, vs cells without peptide
Source text: Having identified peptides able to interfere with the assembly of monomeric LDH‐A into catalytically active tetramer, we considered of interest to test the action of peptides against LDH‐A expressed in human cell lines. In particular, we analyzed the lactate secreted by cultured human cells exposed or not to the peptides better performing as inhibitors of LDH‐A in vitro, that is, TH1, TH2, and TH16. Moreover, we used two different cell lines exclusively expressing LDH‐A or LDH‐B, that is, MCF7 and BxPC3, respectively. In MCF7 cells, the [mRNALDH‐A]/[mRNALDH‐B] ratio is indeed equal to ca. 150 (Figure 9a), whereas in BxPC3 cells the messenger coding for LDH‐A was not detected (Figure 9a). Therefore, by comparing the decrease, if any, of the lactate concentration secreted by these two cell lines the selectivity of peptides acting against LDH‐A or LDH‐B can be conveniently estimated. When the MCF7 cell line is considered, the linear TH16 and the cyclic TH2 tetrapeptide performed equally, being both responsible for a concentration of secreted lactate 20% lower than that detected in their absence (Figure 9b). […] Accordingly, it seems likely that lipofectamine is effective in assisting the penetration of the TH16 and TH2 peptides into cells, with this action of lipofectamine being much weaker when dealing with a larger molecule, that is, an octapeptide.
To evaluate the competence of peptides in inhibiting the action of LDH‐A in cultured cells, two human cell cultures were used: MCF7 and BxPC3, isolated from breast and pancreatic adenocarcinoma, respectively. Cultures were grown in DMEM (MCF7) or RPMI medium (BxPC3), supplemented with 100 U/ml penicillin/streptomycin, 2 mM glutamine and 10% (v/v) FBS. All the components of the media used for cell culture were obtained from Merck‐Millipore.
The competence of peptides in inhibiting LDH in cultured cells was tested by assessing the concentration of lactate released by MCF7 and BxPC3 cell cultures. To this aim, cells were seeded in duplicate in 24‐wells plates (2 × 10^5/well) and let to adhere overnight; the culture medium was then replaced by Krebs‐Ringer buffer (300 μl/well). Stock solutions of peptides (8 mM in DMSO) were diluted in Krebs‐Ringer buffer to a final concentration of 640 μM and mixed with an equal volume of 4% (v/v, in Krebs‐Ringer buffer) Lipofectamine 2000 (Invitrogen). The final solution was thoroughly mixed, kept for 25 min at room temperature, and finally 100 μl were added to each plate well, obtaining a final peptide concentration equal to 80 μM. The concentration of lactate released in the Krebs–Ringer buffer was determined after 4 h of incubation at 37°C, using the colorimetric assay previously reported (Rossi et al., [2023]). Each experiment was performed in triplicate and included control samples consisting of untreated cell cultures exposed to the same final concentration of DMSO (1%, v/v) and Lipofectamine (0.5%, v/v) to which were exposed the samples treated with peptides.

| Inhibition (%) of LDH‐A activity [1] [%] | Substance | other results |
| --- | --- | --- |
| 4 ± 3 | H-KSD[dL]-OH (SMILES CC(C)C[C@@H](NC(=O)[C@H](CC(=O)O)NC(=O)[C@H](CO)NC(=O)[C@@H](N)CCCCN)C(=O)O) [TH19] |  |
| 36 ± 1 | H-GQNGISDL-OH [TH1] | inhibition of tetrameric LDH‐A activity (in words) [2]: no significant inhibition; catalytic action exerted by tetrameric LDH‐A in the presence of peptide ([2]; without peptide 433 ± 11 nM/s): 452 ± 19 nM/s; effect on lactate secretion [3]: did not induce any significant effect; decrease of the concentration of secreted lactate [4]: did not induce any significant effect |
| 6 ± 3 | c[Gly‐Gln‐Asn‐isoAsp(OBn)] (head to tail) [TH10] |  |
| 26 ± 1 | cyclo(GQN[d(βAsp)]) (SMILES NC(=O)CC[C@@H]1NC(=O)CNC(=O)C[C@H](C(=O)O)NC(=O)[C@H](CC(N)=O)NC1=O) [TH3] |  |
| 7 ± 3 | c[isoLys‐Ser‐Asp‐D‐Leu] (sidechain bridge or staple) [TH5] |  |
| 22 ± 2 | H‐Gly‐Gln‐Asn‐Asp‐OH [TH16] | effect on lactate secretion [3]: no significant differences; decrease of the concentration of secreted lactate [4]: 20%; effect on lactate production in the absence of lipofectamine ([4]; MCF7, peptide without lipofectamine): negligible and not significant effects |
| 16 ± 3 | c[isoLys‐Ser‐Asp‐Leu] (sidechain bridge or staple) [TH4] |  |
